# From patent US11185096B2, “Sweet taste improving compositions including naringenin and steviol glycosides” (DR PEPPER/SEVEN UP, INC., priority 2014, dated 2021)
# Legend:
# Format in all cases: in vivo
# [1] = Taste evaluation of beverages with rebaudioside E, rebaudioside M or both, with and without naringenin (Example 3)
# Protocol: In this example, samples were prepared to determine the taste attributes of reduced-calorie beverages including rebaudioside E, rebaudioside M, and combinations of rebaudiosides E and M, with and without naringenin. Beverages were prepared by adding rebaudiosides to the base solution shown in Table E. The tested concentrations of rebaudioside E, rebaudioside M, or a combination of both rebaudiosides, are shown in Table F. Beverages were then prepared by adding naringenin in various amounts, ranging from about 10 ppm to about 300 ppm, as shown in Table G. For example, naringenin was added to the base solution and each of the rebaudioside solutions shown in Table F. Further description of the beverages prepared in Example 3 is also shown in FIG. 2 of the drawings. Each of the prepared beverages was evaluated for changes or improvements for each of sweetness profile (upfront, middle, and back end sweetness), aftertaste (chemical, astringency), mouthfeel (cloying, thickness, thinness), and bitterness (relative to Rebaudioside A). For example, in a protocol to compare the bitterness of beverage samples to rebaudioside A, participants tasted each of an about 10 ml sample of the test beverage and an about 10 ml sample of a beverage including rebaudioside A (prepared in the same base solution shown in Table E). Relative bitterness was then immediately rated between the beverage samples.
# [2] = Sensory panel evaluation of naringenin in water (Example 1); conditions: for Sweetness: sensory panelists
# Protocol: Naringenin was evaluated in water as shown in Table B. Water used in all beverages described herein was specifically purified prior to use by processes well known in the art such as filtration, deionization, distillation, or reverse osmosis. Evaluation of the samples was performed using evaluation by sensory panelists. Beverage sampling comprised of taking an about 10 mL portion of the beverage into the mouth, holding the sample in the mouth, and rating the sweetness for each sample.
# [3] = Taste evaluation of reduced-calorie beverage (Table C base formula) with added naringenin, compared to a full-calorie beverage (Example 2)
# Excerpt: The base formula of Table C may provide about a 50% reduction in calories as compared to a typical full-calorie beverage.
# For example, delocalization of sweetness, an attribute that relates to the beverage mouthfeel, was increased. […] Moreover, the aftertaste of naringenin-including samples became more syrupy, resulting in an aftertaste that was more similar to the full-calorie product. Improvements in sweetness and aftertaste were found for each of the above samples that included naringenin.
# [4] = Table C base formula with naringenin 15 to 300 ppm
smiles,measurement,setting,value
C=C1C[C@@]23CC[C@H]4[C@@](C)(CCC[C@@]4(C)C(=O)O[C@@H]4O[C@H](CO)[C@@H](O)[C@H](O)[C@H]4O[C@@H]4O[C@H](CO)[C@@H](O)[C@H](O)[C@H]4O)[C@@H]2CC[C@]1(O[C@@H]1O[C@H](CO)[C@@H](O)[C@H](O)[C@H]1O[C@@H]1O[C@H](CO)[C@@H](O)[C@H](O)[C@H]1O)C3 [rebaudioside E],sweetness profile,"[1]; Table E base with rebaudioside E 300 ppm, without naringenin, in comparison to sugar or rebaudioside M solutions",very flat sweetness profile and flat
same,mouthfeel and fullness,"[1]; rebaudioside E alone without naringenin, compared to rebaudioside M",less mouthfeel and fullness
O=C1C[C@@H](c2ccc(O)cc2)Oc2cc(O)cc(O)c21 [naringenin],taste or flavor,"[2]; in water, data of Table B (5 to 200 ppm)",does not elicit any taste or flavor
same,Sweetness,[2]; naringenin 5 ppm in water,No perceptible sweetness
same,Sweetness,[2]; naringenin 10 ppm in water,No perceptible sweetness
same,Sweetness,[2]; naringenin 20 ppm in water,No perceptible sweetness
same,Sweetness,[2]; naringenin 40 ppm in water,No perceptible sweetness
same,Sweetness,[2]; naringenin 80 ppm in water,No perceptible sweetness
same,Sweetness,[2]; naringenin 100 ppm in water,No perceptible sweetness
same,Sweetness,[2]; naringenin 200 ppm in water,No perceptible sweetness
same,overall perception,"[1]; 10, 50 or 70 ppm naringenin with combination of rebaudioside E and rebaudioside M, vs rebaudioside M alone or with naringenin",perceived as better
same,mouthfeel,"[1]; 10 to 70 ppm naringenin with rebaudioside E, compared to rebaudioside E base alone",increased
same,overall perception,"[1]; 300 ppm naringenin, Table E base with rebaudioside E 300 ppm",perceived as negative
same,overall perception,"[1]; 300 ppm naringenin, Table E base with rebaudioside M 300 ppm",perceived as negative
same,overall perception,"[1]; 300 ppm naringenin, Table E base with rebaudiosides E and M 150 ppm each",perceived as negative
same,suitability of naringenin level,"[1]; 300 ppm naringenin, across all bases",too high
same,sweetness profiles,"[1]; about 10 ppm to 70 ppm naringenin, Table E base with rebaudioside E 150 ppm and rebaudioside M 150 ppm",significantly improved
same,cloying mouthfeel and aftertaste,"[1]; about 10 ppm to about 70 ppm naringenin, Table E base with rebaudiosides E and M 150 ppm each",diminished
same,mouthfeel,"[1]; higher naringenin concentrations, particularly 300 ppm, Table E base with rebaudioside M 300 ppm, some participants",cloying mouthfeel
same,sweetness in the middle of the profile,[1]; naringenin added to Table E base with rebaudioside E 300 ppm,increased
same,taste character / mouthfeel,[1]; naringenin added to Table E base with rebaudioside M 300 ppm,sticky sweet
same,delocalization of sweetness,[3]; [4],increased
same,upfront sweetness profile,[3]; [4],surprisingly increased
same,syrup qualities of the beverages (mouthfeel),"[3]; Table C base formula with naringenin 15 to 300 ppm, vs full-calorie beverage",increase syrup qualities
same,aftertaste,"[3]; Table C base formula with naringenin 15 to 300 ppm, vs full-calorie product",more syrupy
same,sweetness profile,"[3]; Table C base formula, 15 ppm naringenin",significantly improved
same,sweetness profile,"[3]; Table C base formula, about 30 ppm naringenin",close to that of the full-calorie product
same,noticeable taste impressions or interference with flavors,"[3]; Table C base formula, above 30 ppm up to about 300 ppm naringenin",did not provide any noticeable taste impressions
